Assay results: paper PMC10518257 (Nature Cancer, 2023)
Several values for one entry are separate records, joined by “and”; a condition that tells them apart may be missing. Equal entries are not always repeated. Where two headings read alike, the source gives them in different places.

Legend:
Ba/F3 cells = experiment: Growth inhibition assay in Ba/F3 cells (CellTiter-Glo, 72 h); assay type: cell-based
[1] = tested on: Ba/F3 cells expressing KIF5B–RET^WT; experiment: as above; assay type: cell-based
Ba/F3-CCDC6::RET = experiment: as above; assay type: cell-based
Ba/F3-CCDC6::RET^S904F = experiment: as above; assay type: cell-based
Ba/F3-RET^M918T = experiment: as above; assay type: cell-based; conditions: Mus musculus, BaF3, 72 h, read-out: GI50 value (Mean ± SD), Ba/F3-RET^M918T, CellTiter-Glo, 72 h
[2] = tested on: Ba/F3 cells expressing KIF5B–RET^G810R; experiment: as above; assay type: cell-based; conditions: replicate Sets 1-3
TT cells (RET C634W) = experiment: Dose-response western blotting, EC50 for inhibition of protein phosphorylation; assay type: cell-based; conditions: Homo sapiens
LUAD-0002AS1 cells = experiment: Growth inhibition (alamarBlue, 96 h); assay type: cell-based, human; conditions: for raw viability signal (Source Data Fig. 3b-c): LUAD-0002AS1, replicate sets
ECLC5B cells = experiment: Growth inhibition (alamarBlue, 96 h); assay type: cell-based, human; conditions: for raw viability signal (Source Data Fig. 3b-c): ECLC5B, replicates
TT cells = experiment: Growth inhibition (alamarBlue, 96 h); assay type: cell-based, human; conditions: for raw viability signal (Source Data Fig. 3b-c): replicate sets
MMNK1 cholangiocytes = experiment: Growth inhibition (alamarBlue, 96 h); assay type: cell-based, human; conditions: for raw viability signal (Source Data Fig. 3b-c): MMNK, replicates
[3] = tested on: Ba/F3 KIF5B–RET^WT allograft tumors; experiment: Subcutaneous allograft efficacy study; assay type: in vivo, BALB/c nude mice; conditions: Ba/F3-KIF5B::RET, Ext. Data Fig. 9a
[4] = Homo sapiens, 96 h, read-out: IC50 for Inhibition of Growth (95% CI)

COc1ccc(CN2C3CC2CN(c2ccc(-c4cc(OCC(C)(C)O)cn5ncc(C#N)c45)cn2)C3)cn1 [Selpercatinib]
GI50 (Ba/F3 cells; Ba/F3 (parental), replicate Sets 1-3): 3870 nM and 3570 nM | GI50 (Ba/F3 cells; Mus musculus, BaF3, 72 h, read-out: GI50 value (Mean ± SD), Ba/F3, CellTiter-Glo, 72 h): 3980 nM | GI50 (Ba/F3 cells; Mus musculus, BaF3, Ba/F3 (parental), replicate Sets 1-3): 4490 nM | GI50 ([1]; Ba/3-KIF5B-RET, replicate sets): 6.35 nM and 7.55 nM | GI50 ([1]; Mus musculus, BaF3, 72 h, read-out: GI50 value (Mean ± SD), Ba/F3-KIF5B::RET, CellTiter-Glo, 72 h): 6.68 ± 0.76 nM | GI50 ([1]; Mus musculus, BaF3, Ba/3-KIF5B-RET, replicate sets): 6.13 nM | GI50 (Ba/F3-CCDC6::RET; BaF3/CCDC6-RET, 72 h, read-out: GI50 value (Mean ± SD), Ba/F3-CCDC6::RET, CellTiter-Glo, 72 h): 21.4 ± 7.5 nM | GI50 (Ba/F3-CCDC6::RET; read-out: GI50 values, Ba/F3-CCDC6::RET, individual sets (replicate experiments)): 13 nM and 27.4 nM | GI50 (Ba/F3-CCDC6::RET^S904F; Mus musculus, BaF3, 72 h, read-out: GI50 value (Mean ± SD), Ba/F3-CCDC6::RET^S904F, CellTiter-Glo, 72 h): 4.76 ± 3.02 nM | GI50 (Ba/F3-CCDC6::RET^S904F; read-out: GI50 values, Ba/F3-CCDC6::RET S904F, individual sets (replicate experiments)): 4.25 nM and 8 nM and 2.03 nM | GI50 (Ba/F3-RET^M918T): 1.24 ± 0.78 nM | GI50 ([2]; Ba/3-KIF5B-RET-G810R): 1070 nM and 1190 nM | GI50 ([2]; Mus musculus, BaF3, Ba/3-KIF5B-RET-G810R): 800 nM | EC50 (TT cells (RET C634W); read-out: EC50 for Inhibition of Protein Phosphorylation (95% CI), AKT S473, 2 h, densitometry): 1.9 nM | EC50 (TT cells (RET C634W); read-out: EC50 for Inhibition of Protein Phosphorylation (95% CI), ERK1/2 T202/Y204, 2 h, densitometry): 0.2 nM | EC50 (TT cells (RET C634W); read-out: EC50 for Inhibition of Protein Phosphorylation (95% CI), MEK1/2 S217/S221, 2 h, densitometry): 1.9 nM | EC50 (TT cells (RET C634W); read-out: EC50 for Inhibition of Protein Phosphorylation (95% CI), P70 RSK T421/S424, 2 h, densitometry): 1.7 nM | EC50 (TT cells (RET C634W); read-out: EC50 for Inhibition of Protein Phosphorylation (95% CI), RET Y905, 2 h, densitometry): 11.8 nM | EC50 (TT cells (RET C634W); read-out: EC50 for Inhibition of Protein Phosphorylation (95% CI), S6RP S235/S236, 2 h, densitometry): 0.6 nM | IC50 (LUAD-0002AS1 cells; [4]): 3 nM | raw viability signal (Source Data Fig. 3b-c) (LUAD-0002AS1 cells; 0.01 nM): 16631.5 and 13192.5 and 12693 | raw viability signal (Source Data Fig. 3b-c) (LUAD-0002AS1 cells; 0.1 nM): 14296.3 and 14495.9 and 14138.2 | raw viability signal (Source Data Fig. 3b-c) (LUAD-0002AS1 cells; 1 nM): 14160.4 and 9635.41 and 11277.7 | raw viability signal (Source Data Fig. 3b-c) (LUAD-0002AS1 cells; 10 nM): 3799.84 and 3179.94 and 4108.28 | raw viability signal (Source Data Fig. 3b-c) (LUAD-0002AS1 cells; 100 nM): 2188.78 and 2790.7 and 3166.11 | raw viability signal (Source Data Fig. 3b-c) (LUAD-0002AS1 cells; 1000 nM): 1304.58 and 2278.18 and 2772.5 | raw viability signal (Source Data Fig. 3b-c) (LUAD-0002AS1 cells; 10000 nM): 935.372 and 1860.61 and 2356.9 | raw viability signal (Source Data Fig. 3b-c) (ECLC5B cells; 0.01 nM): 10363.9 and 7402.21 and 18274 | raw viability signal (Source Data Fig. 3b-c) (ECLC5B cells; 0.1 nM): 11026.5 and 8834.98 and 20243.9 | raw viability signal (Source Data Fig. 3b-c) (ECLC5B cells; 1 nM): 10668.5 and 7252.95 and 17721.9 | raw viability signal (Source Data Fig. 3b-c) (ECLC5B cells; 10 nM): 3598.88 and 1351.95 and 6402.34 | raw viability signal (Source Data Fig. 3b-c) (ECLC5B cells; 100 nM): 3342.11 and 1356.99 and 4729.16 | raw viability signal (Source Data Fig. 3b-c) (ECLC5B cells; 1000 nM): 2886.96 and 1354.63 and 4277.75 | raw viability signal (Source Data Fig. 3b-c) (ECLC5B cells; 10000 nM): 1612.7 and 1276.67 and 2944.43 | IC50 (ECLC5B cells; [4]): 5 nM | raw viability signal (Source Data Fig. 3b-c) (TT cells; 0.01 nM): 21887.2 and 26414 and 26210.1 and 12272.3 and 26926.8 | raw viability signal (Source Data Fig. 3b-c) (TT cells; 0.1 nM): 22325.8 and 26539.8 and 30465.8 and 11158.3 and 24677.4 | raw viability signal (Source Data Fig. 3b-c) (TT cells; 1 nM): 20930 and 26176.3 and 29470 and 9614.13 and 22745.1 | raw viability signal (Source Data Fig. 3b-c) (TT cells; 10 nM): 15380.3 and 24600.1 and 21198.9 and 8183.69 and 18775.6 | raw viability signal (Source Data Fig. 3b-c) (TT cells; 100 nM): 9716.19 and 12690.1 and 13114.5 and 5163.1 and 15418.2 | raw viability signal (Source Data Fig. 3b-c) (TT cells; 1000 nM): 9549.4 and 11696.3 and 12426 and 4648.23 and 14095 | raw viability signal (Source Data Fig. 3b-c) (TT cells; 10000 nM): 9076.49 and 11812.8 and 14226.5 and 5846.11 and 12620.2 | IC50 (TT cells; [4]): 23 nM | IC50 (MMNK1 cholangiocytes; [4]): 7930 nM | raw viability signal (Source Data Fig. 3b-c) (MMNK1 cholangiocytes; 0.01 nM): 14041 and 14658.8 | raw viability signal (Source Data Fig. 3b-c) (MMNK1 cholangiocytes; 0.1 nM): 13930.7 and 15331 | raw viability signal (Source Data Fig. 3b-c) (MMNK1 cholangiocytes; 1 nM): 13461 and 14668.6 | raw viability signal (Source Data Fig. 3b-c) (MMNK1 cholangiocytes; 10 nM): 13703.4 and 14128 | raw viability signal (Source Data Fig. 3b-c) (MMNK1 cholangiocytes; 100 nM): 13905.3 and 14051.8 | raw viability signal (Source Data Fig. 3b-c) (MMNK1 cholangiocytes; 1000 nM): 12731.7 and 12599.2 | raw viability signal (Source Data Fig. 3b-c) (MMNK1 cholangiocytes; 10000 nM): 6976.41 and 6993.09 | Tumor Volume Mean ([3]; 3 mg/kg BID, Day 1): 153.36 mm3 | Tumor Volume Mean ([3]; 3 mg/kg BID, Day 4): 200.42 mm3 | Tumor Volume Mean ([3]; 3 mg/kg BID, Day 8): 331.73 mm3 | Tumor Volume Mean ([3]; 3 mg/kg BID, Day 11): 595.39 mm3 | Tumor Volume Mean ([3]; 3 mg/kg BID, Day 15): 703.72 mm3 | Tumor Volume Mean ([3]; 10 mg/kg BID, Day 1): 152.35 mm3 | Tumor Volume Mean ([3]; 10 mg/kg BID, Day 4): 168.16 mm3 | Tumor Volume Mean ([3]; 10 mg/kg BID, Day 8): 206.58 mm3
